Data reported in ChEMBL document CHEMBL1201862, “PubChem BioAssay data set” (2004).
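Method: 48-hour compound exposure of cells in 96-well plates, five concentrations, linear interpolation of endpoints. GI50: concentration for 50% inhibition of growth.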 Active and inactive are the calls of the source. Rule as the data show it: active = GI50 up to about 1.1 µM and inactive = higher.

What was measured:
Assay in all cases: NCI-60 cell line screen, 48 h
[1] = system: HCT-15
[2] = system: 786-0
[3] = system: UACC-62
[4] = system: COLO 205
[5] = system: SK-MEL-5
[6] = system: SN12C
[7] = system: HT-29
[8] = system: IGROV-1
[9] = system: OVCAR-5
[10] = system: RXF 393
[11] = system: ACHN
[12] = system: NCI-H522
[13] = system: U-251
[14] = system: HOP-92
[15] = system: NCI-H226
[16] = system: SK-MEL-28
[17] = system: MOLT-4

Row | Compound | GI50 [1] [µM] | GI50 [2] | GI50 [3] | GI50 [4] | GI50 [5] | GI50 [6] | GI50 [7] | GI50 [8] | GI50 [9] | GI50 [10] | GI50 [11] | GI50 [12] | GI50 [13] | GI50 [14] | GI50 [15] | GI50 [16] | GI50 [17]
1 | CC1=C(C(=O)CC(=O)C(=O)Nc2ccccc2C(F)(F)F)Sc2ccccc2N1 | 48.4 | > 100 µM (inactive) | 38.5 µM (inactive) | > 100 µM (inactive) | 37.3 µM (inactive) | 56.4 µM (inactive) | > 100 µM (inactive) | 44 µM (inactive) | > 100 µM (inactive) | 15.8 µM (inactive) | 73.3 µM (inactive) | 24.5 µM (inactive) | 64.9 µM (inactive) | 20.8 µM (inactive) | 15.6 µM (inactive) |  | 
2 | NCCN1C(=O)C2C3c4ccccc4C(c4ccccc43)C2C1=O (stereo unspecified) | > 100 | > 100 µM (inactive) | > 100 µM (inactive) | > 100 µM (inactive) | > 100 µM (inactive) | > 100 µM (inactive) | > 100 µM (inactive) | > 100 µM (inactive) | > 100 µM (inactive) |  | > 100 µM (inactive) | > 100 µM (inactive) | > 100 µM (inactive) | 28.2 µM (inactive) | > 100 µM (inactive) | > 100 µM (inactive) | > 100 µM (inactive)
3 | Nc1ccccc1C(=O)/C=C/c1ccccc1O |  | 57 µM (inactive) | 57.1 µM (inactive) | > 100 µM (inactive) | 65 µM (inactive) | 55.2 µM (inactive) | > 100 µM (inactive) | > 100 µM (inactive) | > 100 µM (inactive) | 61.1 µM (inactive) |  | 34.5 µM (inactive) | 95.9 µM (inactive) | 20.6 µM (inactive) | > 100 µM (inactive) | > 100 µM (inactive) | 31.3 µM (inactive)
4 | CCOC(=O)C1Cc2[nH]c3ccccc3c2C(C)C1C (stereo unspecified) | 16.7 | 14.6 µM (inactive) | 10.8 µM (inactive) | 17.3 µM (inactive) | 14 µM (inactive) | 18.4 µM (inactive) |  | 15.3 µM (inactive) | 17 µM (inactive) |  | 13.7 µM (inactive) | 12.2 µM (inactive) | 18.5 µM (inactive) | 15.7 µM (inactive) | 11.6 µM (inactive) | 17.1 µM (inactive) | 10.8 µM (inactive)
5 | CC12C/C(=C\c3ccccc3)C(=O)C3C1CCCC32 | > 100 | 95.9 µM (inactive) | > 100 µM (inactive) | 87.1 µM (inactive) | 46 µM (inactive) | > 100 µM (inactive) | 31.6 µM (inactive) | > 100 µM (inactive) | > 100 µM (inactive) |  | > 100 µM (inactive) | 26.5 µM (inactive) | 61.4 µM (inactive) | > 100 µM (inactive) | > 100 µM (inactive) | > 100 µM (inactive) | 21.5 µM (inactive)
6 | O=C1c2ccccc2C(=O)c2[nH]cnc21 | 48.5 | 75.9 µM (inactive) | 31.9 µM (inactive) |  | 18.1 µM (inactive) | 95.7 µM (inactive) | 33.5 µM (inactive) |  |  | > 100 µM (inactive) | 66.7 µM (inactive) | 34 µM (inactive) | 73.8 µM (inactive) |  | 29.8 µM (inactive) | > 100 µM (inactive) | 49.5 µM (inactive)
7 | COC(=O)C(=O)C(C(=O)C(=O)Nc1ccc([N+](=O)[O-])cc1C#N)c1nc2ccc([N+](=O)[O-])cc2nc1O (stereo unspecified) | > 100 | > 100 µM (inactive) | > 100 µM (inactive) | > 100 µM (inactive) |  | > 100 µM (inactive) | > 100 µM (inactive) |  | > 100 µM (inactive) | > 100 µM (inactive) | > 100 µM (inactive) | > 100 µM (inactive) | > 100 µM (inactive) | 93.1 µM (inactive) | 57.5 µM (inactive) |  | > 100 µM (inactive)
8 | CO[C@]12CCC(=O)N1C=Cc1c2[nH]c2ccccc12 | > 100 | > 100 µM (inactive) | > 100 µM (inactive) | > 100 µM (inactive) | > 100 µM (inactive) |  | > 100 µM (inactive) | > 100 µM (inactive) | > 100 µM (inactive) | > 100 µM (inactive) | > 100 µM (inactive) |  |  | > 100 µM (inactive) | > 100 µM (inactive) | > 100 µM (inactive) | > 100 µM (inactive)
9 | CS(=O)(=O)N(CCC#N)c1ccc(/C=N/NC(=O)CC(=O)Nc2cccc(Cl)c2)cc1 | > 100 | > 100 µM (inactive) | > 100 µM (inactive) | > 100 µM (inactive) | > 100 µM (inactive) | > 100 µM (inactive) | > 100 µM (inactive) | > 100 µM (inactive) | > 100 µM (inactive) | > 100 µM (inactive) | > 100 µM (inactive) | > 100 µM (inactive) | > 100 µM (inactive) |  | > 100 µM (inactive) | > 100 µM (inactive) | > 100 µM (inactive)
10 | O=C1C[C@@H]2[C@@H](c3ccccc3)[C@@H]3C(=O)c4ccccc4NC(=O)[C@H]3[C@]2(O)c2ccccc2N1 | > 100 | > 100 µM (inactive) | > 100 µM (inactive) | > 100 µM (inactive) | > 100 µM (inactive) | > 100 µM (inactive) | > 100 µM (inactive) | > 100 µM (inactive) | > 100 µM (inactive) | > 100 µM (inactive) | > 100 µM (inactive) | > 100 µM (inactive) | > 100 µM (inactive) |  | > 100 µM (inactive) | > 100 µM (inactive) | > 100 µM (inactive)
11 | c1cc2nnsc2s1 | > 100 | 44.5 µM (inactive) | > 100 µM (inactive) | 42.3 µM (inactive) | > 100 µM (inactive) | > 100 µM (inactive) | > 100 µM (inactive) | > 100 µM (inactive) | > 100 µM (inactive) |  | > 100 µM (inactive) | > 100 µM (inactive) | > 100 µM (inactive) | > 100 µM (inactive) | > 100 µM (inactive) | > 100 µM (inactive) | > 100 µM (inactive)
12 | CC1CCc2c(sc3ncnc(N/N=C/c4ccc(Cl)c(Cl)c4)c23)C1 (stereo unspecified) | 9.73 | 15.6 µM (inactive) | 18.2 µM (inactive) | 6.17 µM (inactive) | 16.7 µM (inactive) | 19.4 µM (inactive) | 13.6 µM (inactive) | 37.2 µM (inactive) | 32.7 µM (inactive) | 20.9 µM (inactive) | 5.38 µM (inactive) | 5.45 µM (inactive) | 5.2 µM (inactive) |  | 16.4 µM (inactive) | 21.2 µM (inactive) | 7.4 µM (inactive)
13 | CC1(C)C2C/C(=C\c3ccccc3)C(=O)C1C2 (stereo unspecified) | > 100 | > 100 µM (inactive) | > 100 µM (inactive) | > 100 µM (inactive) | 45.5 µM (inactive) | > 100 µM (inactive) | 87.9 µM (inactive) | > 100 µM (inactive) | > 100 µM (inactive) | 27.6 µM (inactive) | > 100 µM (inactive) | 40.9 µM (inactive) | > 100 µM (inactive) | > 100 µM (inactive) |  | 87.5 µM (inactive) | 56.9 µM (inactive)
14 | Cn1c(=O)c2ccc(-c3ccc(Br)cc3)nc2n(C)c1=O | > 100 | > 100 µM (inactive) | > 100 µM (inactive) | > 100 µM (inactive) | > 100 µM (inactive) |  | > 100 µM (inactive) | > 100 µM (inactive) | > 100 µM (inactive) |  |  | > 100 µM (inactive) | > 100 µM (inactive) | > 100 µM (inactive) | > 100 µM (inactive) | > 100 µM (inactive) | > 100 µM (inactive)
15 | O=C(CC1(O)C(=O)Nc2c(Cl)cc(Cl)cc21)c1cccc2ccccc12 (stereo unspecified) | 16.5 | 15.8 µM (inactive) | 14.9 µM (inactive) | 17 µM (inactive) | 15.2 µM (inactive) | 18.4 µM (inactive) | 19.6 µM (inactive) | 18.6 µM (inactive) | 22.4 µM (inactive) | 20.6 µM (inactive) | 17.1 µM (inactive) | 14.3 µM (inactive) | 15.5 µM (inactive) |  | 16.5 µM (inactive) | 18.7 µM (inactive) | 20 µM (inactive)
16 | COc1cc(C2c3cc4c(cc3[C@@H](NCCN3CCCCC3)C3COC(=O)[C@H]23)OCO4)cc(OC)c1O (stereo partly specified) | 0.337 | 0.188 µM (active) | 0.298 µM (active) | 0.782 µM (active) | 0.325 µM (active) | 2.04 µM (inactive) | 1.23 µM (inactive) | 1.46 µM (inactive) | 1.69 µM (inactive) |  | 0.671 µM (active) |  | 0.122 µM (active) | 0.265 µM (active) | 0.0324 µM (active) | 2.42 µM (inactive) | < 0.01 µM (active)
17 | O=C(C=C1SCCS1)/C=C\c1ccc(Cl)cc1 |  | > 100 µM (inactive) | 99.8 µM (inactive) | > 100 µM (inactive) | > 100 µM (inactive) | > 100 µM (inactive) | 41.4 µM (inactive) | > 100 µM (inactive) |  |  |  | > 100 µM (inactive) |  | > 100 µM (inactive) | 83.2 µM (inactive) | > 100 µM (inactive) | > 100 µM (inactive)
18 | CC(=O)OC1c2ccccc2CCCCCCC12OCCO2 (stereo unspecified) | 68.1 | > 100 µM (inactive) | > 100 µM (inactive) | > 100 µM (inactive) | 55.5 µM (inactive) | > 100 µM (inactive) | > 100 µM (inactive) | > 100 µM (inactive) | > 100 µM (inactive) | > 100 µM (inactive) | > 100 µM (inactive) | 50.9 µM (inactive) | > 100 µM (inactive) |  | > 100 µM (inactive) | > 100 µM (inactive) | 60.3 µM (inactive)
19 | Nc1nc(-c2ccco2)cc(-c2ccc(CO)o2)n1 | > 100 | > 100 µM (inactive) | > 100 µM (inactive) | > 100 µM (inactive) | > 100 µM (inactive) | > 100 µM (inactive) | > 100 µM (inactive) | > 100 µM (inactive) | > 100 µM (inactive) | > 100 µM (inactive) | > 100 µM (inactive) | 85.5 µM (inactive) |  |  | 54.3 µM (inactive) | > 100 µM (inactive) | > 100 µM (inactive)
